Source: the NIST ThermoML archive (doi:10.1016/j.tca.2012.05.036)
Numbers after ± are expanded uncertainties.

Assays:
[1] = refractive index (Na D-line) (dimensionless); xn = mol fraction of the nth substance listed; conditions: 101 kPa, Liquid, Standard Abbe refractometry
[2] = relative permittivity at zero frequency (dimensionless); xn = mol fraction of the nth substance listed; conditions: 101 kPa, Liquid, Parallel plate capacitor

Compound: CCCCCO [pentan-1-ol] + CCCCCCCC
- refractive index ([1]; 293.15 K, x1 = 0.1008): 1.3981 ± 0.0005
- refractive index ([1]; 293.15 K, x1 = 0.2034): 1.3988 ± 0.0005
- refractive index ([1]; 293.15 K, x1 = 0.3004): 1.3997 ± 0.0005
- refractive index ([1]; 293.15 K, x1 = 0.3808): 1.4005 ± 0.0005
- refractive index ([1]; 293.15 K, x1 = 0.4885): 1.4019 ± 0.0005
- refractive index ([1]; 293.15 K, x1 = 0.593): 1.4033 ± 0.0005
- refractive index ([1]; 293.15 K, x1 = 0.6992): 1.4047 ± 0.0005
- refractive index ([1]; 293.15 K, x1 = 0.7922): 1.4063 ± 0.0005
- refractive index ([1]; 293.15 K, x1 = 0.8967): 1.4082 ± 0.0005
- refractive index ([1]; 298.15 K, x1 = 0.1008): 1.3965 ± 0.0005
- refractive index ([1]; 298.15 K, x1 = 0.2034): 1.3973 ± 0.0005
- refractive index ([1]; 298.15 K, x1 = 0.3004): 1.3982 ± 0.0005
- refractive index ([1]; 298.15 K, x1 = 0.3808): 1.3991 ± 0.0005
- refractive index ([1]; 298.15 K, x1 = 0.4885): 1.4004 ± 0.0005
- refractive index ([1]; 298.15 K, x1 = 0.593): 1.4019 ± 0.0005
- refractive index ([1]; 298.15 K, x1 = 0.6992): 1.4034 ± 0.0005
- refractive index ([1]; 298.15 K, x1 = 0.7922): 1.405 ± 0.0005
- refractive index ([1]; 298.15 K, x1 = 0.8967): 1.407 ± 0.0005
- refractive index ([1]; 303.15 K, x1 = 0.1008): 1.3937 ± 0.0005
- refractive index ([1]; 303.15 K, x1 = 0.2034): 1.3946 ± 0.0005
- refractive index ([1]; 303.15 K, x1 = 0.3004): 1.3955 ± 0.0005
- refractive index ([1]; 303.15 K, x1 = 0.3808): 1.3964 ± 0.0005
- refractive index ([1]; 303.15 K, x1 = 0.4885): 1.3979 ± 0.0005
- refractive index ([1]; 303.15 K, x1 = 0.593): 1.3993 ± 0.0005
- refractive index ([1]; 303.15 K, x1 = 0.6992): 1.4008 ± 0.0005
- refractive index ([1]; 303.15 K, x1 = 0.7922): 1.4026 ± 0.0005
- refractive index ([1]; 303.15 K, x1 = 0.8967): 1.4046 ± 0.0005
- relative permittivity at zero frequency ([2]; 288.15 K, x1 = 0.1008): 2.104 ± 0.13
- relative permittivity at zero frequency ([2]; 288.15 K, x1 = 0.2034): 2.331 ± 0.14
- relative permittivity at zero frequency ([2]; 288.15 K, x1 = 0.3004): 2.766 ± 0.17
- relative permittivity at zero frequency ([2]; 288.15 K, x1 = 0.3808): 3.405 ± 0.2
- relative permittivity at zero frequency ([2]; 288.15 K, x1 = 0.4885): 4.798 ± 0.29
- relative permittivity at zero frequency ([2]; 288.15 K, x1 = 0.593): 6.675 ± 0.4
- relative permittivity at zero frequency ([2]; 288.15 K, x1 = 0.6992): 8.743 ± 0.53
- relative permittivity at zero frequency ([2]; 288.15 K, x1 = 0.7922): 11.143 ± 0.67
- relative permittivity at zero frequency ([2]; 288.15 K, x1 = 0.8967): 13.734 ± 0.82
- relative permittivity at zero frequency ([2]; 293.15 K, x1 = 0.1008): 2.1 ± 0.13
- relative permittivity at zero frequency ([2]; 293.15 K, x1 = 0.2034): 2.321 ± 0.14
- relative permittivity at zero frequency ([2]; 293.15 K, x1 = 0.3004): 2.731 ± 0.16
- relative permittivity at zero frequency ([2]; 293.15 K, x1 = 0.3808): 3.32 ± 0.2
- relative permittivity at zero frequency ([2]; 293.15 K, x1 = 0.4885): 4.601 ± 0.28
- relative permittivity at zero frequency ([2]; 293.15 K, x1 = 0.593): 6.358 ± 0.38
- relative permittivity at zero frequency ([2]; 293.15 K, x1 = 0.6992): 8.332 ± 0.5
- relative permittivity at zero frequency ([2]; 293.15 K, x1 = 0.7922): 10.654 ± 0.64
- relative permittivity at zero frequency ([2]; 293.15 K, x1 = 0.8967): 13.179 ± 0.79
- relative permittivity at zero frequency ([2]; 298.15 K, x1 = 0.1008): 2.096 ± 0.13
- relative permittivity at zero frequency ([2]; 298.15 K, x1 = 0.2034): 2.312 ± 0.14
- relative permittivity at zero frequency ([2]; 298.15 K, x1 = 0.3004): 2.699 ± 0.16
- relative permittivity at zero frequency ([2]; 298.15 K, x1 = 0.3808): 3.243 ± 0.2
- relative permittivity at zero frequency ([2]; 298.15 K, x1 = 0.4885): 4.421 ± 0.27
- relative permittivity at zero frequency ([2]; 298.15 K, x1 = 0.593): 6.053 ± 0.36
- relative permittivity at zero frequency ([2]; 298.15 K, x1 = 0.6992): 7.936 ± 0.48
- relative permittivity at zero frequency ([2]; 298.15 K, x1 = 0.7922): 10.175 ± 0.61
- relative permittivity at zero frequency ([2]; 298.15 K, x1 = 0.8967): 12.634 ± 0.76
- relative permittivity at zero frequency ([2]; 303.15 K, x1 = 0.1008): 2.092 ± 0.13
- relative permittivity at zero frequency ([2]; 303.15 K, x1 = 0.2034): 2.304 ± 0.14
- relative permittivity at zero frequency ([2]; 303.15 K, x1 = 0.3004): 2.669 ± 0.16
- relative permittivity at zero frequency ([2]; 303.15 K, x1 = 0.3808): 3.173 ± 0.19
- relative permittivity at zero frequency ([2]; 303.15 K, x1 = 0.4885): 4.257 ± 0.26
- relative permittivity at zero frequency ([2]; 303.15 K, x1 = 0.593): 5.774 ± 0.35
- relative permittivity at zero frequency ([2]; 303.15 K, x1 = 0.6992): 7.559 ± 0.45
- relative permittivity at zero frequency ([2]; 303.15 K, x1 = 0.7922): 9.712 ± 0.58
- relative permittivity at zero frequency ([2]; 303.15 K, x1 = 0.8967): 12.103 ± 0.73
- relative permittivity at zero frequency ([2]; 308.15 K, x1 = 0.1008): 2.088 ± 0.12
- relative permittivity at zero frequency ([2]; 308.15 K, x1 = 0.2034): 2.297 ± 0.14
- relative permittivity at zero frequency ([2]; 308.15 K, x1 = 0.3004): 2.643 ± 0.16
- relative permittivity at zero frequency ([2]; 308.15 K, x1 = 0.3808): 3.111 ± 0.19
- relative permittivity at zero frequency ([2]; 308.15 K, x1 = 0.4885): 4.109 ± 0.25
- relative permittivity at zero frequency ([2]; 308.15 K, x1 = 0.593): 5.516 ± 0.33
- relative permittivity at zero frequency ([2]; 308.15 K, x1 = 0.6992): 7.204 ± 0.43
- relative permittivity at zero frequency ([2]; 308.15 K, x1 = 0.7922): 9.267 ± 0.56
- relative permittivity at zero frequency ([2]; 308.15 K, x1 = 0.8967): 11.585 ± 0.69
